Reference: US6875576B2, “Method for evaluating therapeutic efficacy” (Kosan Biosciences, Inc., priority 2001, dated 2005)
Blank lines part the entries; values can stand above or below the compound they belong to.

Key:
[1] = treating gastroesophageal reflux disease; Van Her Waarde et al. 2000; cited from earlier work
[2] = Acid stability; format: physicochemical; details: stomach environment
[3] = biological target: T1, human motilin receptor (Homo sapiens, UniProt O43193); experiment: Efficacy index: ratio of desensitization value to potency value, motilin receptor and aequorin co-expressed; format: cell-based; details: ratio of desensitization value (IC50) to potency value (EC50); cells co-expressing motilin receptor and aequorin
T1 construct: expressed in transfected cells; host or cells: HEK293 (ATCC CRL-1573), transiently or stably transfected with pkos127-159 and pmtAEQ
Text: In one aspect of the present invention, the comparison of the potency value and the desensitization value is accomplished by calculating a ratio of the desensitization value to the potency value. This ratio is termed the “efficacy index”. […] In other words, because the concentration required for the desired biological response is also the concentration that induces desensitization, the compound is not likely to be therapeutically effective if the desired response is receptor activation. Under these circumstances, the concentration required for the desired biological response should be well below the concentration that induces desensitization. […]
(§1) Flasks containing HEK293 cells either transiently or stably expressing the motilin receptor and aequorin were used in receptor activation assays. Cells were grown to 80-100% confluence in T175 flasks containing MEMalpha medium with 10% v/v fetal bovine serum, harvested by trypsinization, and counted using a hemocytometer. […]
Stock solutions (20 mM) of test compounds were made in ethanol and diluted 100-fold into PBS. […] One of the injectors was used to add 100 uL of the cell suspension (˜5×10^4 to 10^5) to each well, and the bioluminescence response was measured over the course of 30-60 seconds. […] The F value of the cells to each test compound was calculated using equation 1, and data were fit to equation 2 to obtain EC50 values for the test compounds. […]

[4] = biological target: T1, human motilin receptor; experiment: Motilin receptor activation assay (aequorin luminescence); format: cell-based; details: motilin receptor agonism
Text: A gene encoding the target receptor is cloned and placed into a mammalian expression vector such as pcDNA3.1. The gene may be synthetic or naturally derived. Next, pmtAEQ, an aequorin expression plasmid available from Molecular Probes, and the receptor expression construct are transfected into HEK293 cells using a commercially available transfection kit such as Lipofectamine Plus (Gibco BRL). At this point, a stable cell line may be selected from the transfection mix using common techniques, or the heterologous mixture obtained from transient transfection may be used directly. […] A 100 uL aliquot of cells is added to each well, and following each addition, the integrated luminescence is measured for 30-60 seconds and is taken as the agonist response. Next, 100 uL of 1% triton X-100 in PBS is injected into each well, and the integrated luminescence is measured a second time over 30-60 seconds and is taken as the triton response. A value F is calculated as equaled to the agonist response divided by the sum of the agonist response and the triton response. […]
as §1

[5] = biological target: T2, C3a receptor (Homo sapiens, UniProt Q16581); experiment: Ca2+ mobilization via FLIPR; format: cell-based
T2 construct: expressed in transfected cells; host or cells: HEK 293, transient transfection, with or without promiscuous G protein Galpha16
T2 sequence (Q16581 1-482): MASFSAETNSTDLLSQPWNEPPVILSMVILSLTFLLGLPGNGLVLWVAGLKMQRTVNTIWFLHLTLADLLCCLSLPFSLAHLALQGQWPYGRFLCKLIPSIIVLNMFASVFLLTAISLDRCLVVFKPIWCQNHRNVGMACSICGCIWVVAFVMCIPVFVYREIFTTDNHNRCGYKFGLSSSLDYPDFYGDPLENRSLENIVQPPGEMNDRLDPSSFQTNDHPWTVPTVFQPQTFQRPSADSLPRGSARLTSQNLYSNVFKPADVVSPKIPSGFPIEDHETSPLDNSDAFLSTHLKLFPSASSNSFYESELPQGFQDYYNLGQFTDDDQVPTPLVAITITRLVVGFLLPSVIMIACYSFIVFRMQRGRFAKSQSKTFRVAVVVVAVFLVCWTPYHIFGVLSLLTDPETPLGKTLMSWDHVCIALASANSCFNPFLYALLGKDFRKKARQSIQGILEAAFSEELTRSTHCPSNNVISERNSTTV
Procedure: 1. 24 h after receptor transfection harvest and plate cells into poly-D-lysine-coated 96-well black-walled/clear bottom microtiter plates (Becton Dickinson Labware) at 3×10^4 cells per well.
2. After 18 to 24 h aspirate off medium and add 100 μl of fresh EMEM containing 4 μM Fluo-3/AM (Molecular Probes; prepare stock solution at 2 mM in DMSO containing 20% pluronic acid), 0.1% BSA, and […] to each well and incubate for 1 h at 37° C.
3. Aspirate medium and replace with 100 μl of the same medium, but without Fluo-3/AM, and incubate for 10 min at 37° C. Wash cells three times with a Denley cell washer (Labsystems) with Krebs Ringer Henscleit (KRH; 118 mM NaCl, 4.6 mM KCl, […] NaHCO3, 1 mM KH2PO4, 1.1 mM glucose, 1.1 mM MgCl2) containing 0.1% BSA, […], and 20 mM HEPES pH 7.4 (buffer A). After the last wash aspirate down to a final volume of 100 μl.
4. Prepare plates of potential ligands, tissue extracts, or compound libraries in 96-well polypropylene microplates at three times the final concentration in buffer A and warm to 37° C.
5. Place microplates containing Fluo-3 loaded cells and the ligand plates in FLIPR and monitor. At initiation of the fluorescence recording read measurements every 1 s for 60 s and then every 3 s for the following 60 s. […] FLIPR software normalizes fluorescent readings to give equivalent readings for all wells at zero time.

T1 sequence (O43193 whole entry): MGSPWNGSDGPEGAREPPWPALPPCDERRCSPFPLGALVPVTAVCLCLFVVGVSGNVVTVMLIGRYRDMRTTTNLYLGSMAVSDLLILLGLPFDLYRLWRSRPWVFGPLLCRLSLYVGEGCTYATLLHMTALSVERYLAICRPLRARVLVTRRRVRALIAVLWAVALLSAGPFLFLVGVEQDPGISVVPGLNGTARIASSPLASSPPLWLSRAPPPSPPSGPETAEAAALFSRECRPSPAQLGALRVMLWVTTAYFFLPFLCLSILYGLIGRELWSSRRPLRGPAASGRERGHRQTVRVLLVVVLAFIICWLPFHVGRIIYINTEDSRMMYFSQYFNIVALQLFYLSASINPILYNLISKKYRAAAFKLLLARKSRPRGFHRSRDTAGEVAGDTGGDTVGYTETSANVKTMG

Compound: CC[C@H]1OC(=O)[C@H](C)[C@@H](OC2C[C@@](C)(OC)C[C@H](C)O2)[C@H](C)[C@@H](OC2O[C@H](C)C[C@H](N(C)CC)[C@H]2O)[C@]2(C)CC(C)=C(O2)[C@H](C)[C@@H](O)[C@H]1C (stereo partly drawn) [ABT-229]
clinical efficacy [1]: lack of efficacy

Compound: CC[C@H]1OC(=O)[C@H](C)[C@@H](OC2C[C@@](C)(OC)[C@@H](O)[C@H](C)O2)[C@H](C)[C@@H](OC2O[C@H](C)C[C@H](N(C)C)[C@H]2O)[C@]2(C)CC(C)=C(O2)[C@H](C)[C@@H](O)[C@]1(C)O (stereo partly drawn) [erythromycin 6,9-enol ether]
stability in acid [2]: unstable in acid
efficacy index [3]: greater than 20,000
potency (EC50) [4]: nanomolar range

Ca2+ mobilization response ([5]; C3a receptor co-expressed with Gα16 in HEK 293 cells): robust responses
Ca2+ mobilization response ([5]; C3a receptor expressed alone in HEK 293 cells): weak or no Ca^2+ mobilization responses
Compound: C3a: ligand of the C3a receptor
